Laboratory results taken from article PMC7179259, “Safety, Tolerability, Pharmacokinetics, and Antimalarial Activity of the Novel Plasmodium Phosphatidylinositol 4-Kinase Inhibitor MMV390048 in Healthy Volunteers” (Antimicrobial Agents and Chemotherapy, 2020).

How the values were obtained:
[1] = tested on: healthy subjects inoculated with blood-stage P. falciparum; assay: Induced blood-stage malaria (IBSM) study: safety; format: in vivo, human
Method: The second study was conducted at Q-Pharm (Brisbane, Australia) from 27 October 2014 to 19 December 2014. This was an IBSM, phase 1b, single-center, open-label study, in which a single dose of MMV390048 was administered to subjects previously inoculated with blood-stage P. falciparum. This study was planned to consist of two dose cohorts; however, a second cohort was not enrolled due to the high variability in pharmacokinetic profiles observed in the first cohort and in the first-in-human study (see Results). The IBSM study commenced when the first two dose cohorts of the first-in-human study had been completed. MMV390048 was administered in the first-in-human and IBSM studies in a powder-in-bottle formulation.
(ii) IBSM study. The dose of MMV390048 chosen (20 mg) was based on the pharmacokinetic, safety, and tolerability data available from the first-in-human study at the time the IBSM study commenced (when 5- and 20-mg-dose cohorts of the first-in-human study had been completed). This dose was below the estimated single dose required to achieve complete cure calculated from preclinical studies (80 to 100 mg) since recrudescence allows for characterization of the pharmacokinetic/pharmacodynamic relationship between MMV390048 and P. falciparum parasitemia. Subjects were inoculated intravenously on day 0 with erythrocytes infected with ∼1,800 viable chloroquine-sensitive P. falciparum 3D7 parasites ([17]). Fasted (≥8 h) subjects were dosed with MMV390048 when they reached the parasitemia threshold for treatment (∼1,000 parasites ml^−1) and were followed up until the end-of-study visit on day 28.
Safety endpoints were the incidence, severity, and relationship to the investigational product (and inoculum for the IBSM study) of observed and self-reported adverse events (AEs), and changes from baseline in physical examination, vital signs, standard electrocardiograms (ECGs), continuous ECGs (first-in-human study only), and laboratory evaluation (hematology, coagulation parameters, hemolysis panel, clinical chemistry, and urinalysis) findings. […] AE severity was evaluated according to the Common Terminology Criteria for Adverse Events version 4.03 ([18]) and the World Health Organization recommendations for grading acute and subacute toxic effects ([19]).

[2] = Stability in human plasma and whole blood (bioanalytical validation); format: in vitro ADME
From the text: page 28: Determination of MMV390048 from 50 µ L human plasma by LC -MS/MS A method was validated for the quantification of MMV390048 in human plasma, and consisted of a protein precipitation extraction, followed by high performance liquid chromatography with MS/MS detection. MMV390048- d3 was used as the internal standard. Analyte mean extraction yield was approximately 106.5 % (CV% = 6.2). The extraction procedure was followed by liquid chromatographic separation using a Waters Atlantis T3 3 μm, 100 x 2.1 mm analytical column. An isocratic mobile phase containing water:acetonitrile (25:75 [v/v]) was used at a flow-rate of 300 μL/min. The retention times for MMV390048 and MMV390048- d3 were 1.16 min and 1.16 min, respectively. An AB Sciex API 4000 mass spectrometer at unit resolution in the multiple reaction monitoring mode was used to monitor the transition of the protonated precursor ions, 394.145 m/z and 397.148 m/z, to the product ions, 297.0 m/z and 297.0 m/z, for MMV390048 and the internal standard, respectively. Electro -spray ionisation was used for ion production. Accuracy and precision were assessed over three consecutive, independent runs. The calibration curve fits a quadratic (weighted by 1/x) regressions for MMV390048 over the ranges 0.500 –2000 ng/mL, based on peak area ratios. The assay was successfully cross- validated on a second/back- up API 4000 instrument. […] Stock solutions of MMV390048 in dimethylsulfoxide was stable for 67 days when stored at -80°C and for 24 hours when stored at room temperature, 4°C and - 20°C. […] Samples with haemolysis greater than 1% were assayed in duplicate to confirm results.

## CS(=O)(=O)c1ccc(-c2cnc(N)c(-c3ccc(C(F)(F)F)nc3)c2)cc1 [MMV390048]
[1]; 20 mg
  AEs deemed related to malaria: 81.3%
[1]; 20 mg (n = 6)
  No. (%) of subjects with adverse events: All AEs, Treatment related: 0
  No. (%) of subjects with adverse events: Grade 2 AEs: 3 (50)
  No. (%) of subjects with adverse events: Grade 2 AEs, Treatment related: 0
  No. (%) of subjects with adverse events: Grade 3 AEs: 0
  No. (%) of subjects with adverse events: SAEs: 0
  No. of adverse events: All AEs: 32
  No. of adverse events: Grade 2 AEs: 9
  No. of adverse events: Grade 2 AEs, Treatment related: 0
  No. of adverse events: Grade 3 AEs: 0
  No. of adverse events: SAEs: 0
[1]; 20 mg, 23/32 AEs
  AEs mild in severity: 71.9%
[1]; 20 mg, in 4 subjects
  headache (most common AE), cases: 7
[2]; freeze-thaw cycles
  stable in human plasma when subjected to freeze-thaw cycles: 3
[2]; on ice
  stable in whole blood for up to: 1 h
[2]; room temperature
  stable in human plasma for: 6 h
[2]; stored at approximately -80°C
  stable in human plasma for up to: 79 days
